In patent publication US20220211478A1, “SURGICAL SYSTEM AND METHODS OF USE” (priority 2021, published 2022):

What was measured:
myofibroblast formation = details: capsular contracture with breast implants; Ajmal et al. (2003); cited from earlier work
fibrinolysis = assay: prevention / reversal of fibrinolysis; details: relative to doses of the non-GLP acute porcine study
Excerpt: (§1) However, in some embodiments, however, higher doses of tranexamic acid are used for topical applications to account for tranexamic acid being widely distributed throughout the extracellular and intracellular compartments when given preoperatively.

[1] = in vivo
Excerpt: as §1

Row | time to reach plasma concentrations [1] | Compound | effect on myofibroblast formation (myofibroblast formation) | dose effective in reversing fibrinolysis (fibrinolysis)
1 |  | O=S(=O)([O-])CCS.[Na+] [MESNA, sodium 2-mercaptoethane sulfonate] | diminish myofibroblast formation | 
2 | 5 to 15 min | NC[C@H]1CC[C@H](C(=O)O)CC1 [tranexamic acid, trans-4-(aminomethyl)cyclohexanecarboxylic acid] |  | one tenth of the doses used in the non-GLP acute porcine study
